# Laboratory results reported in patent US5212182A, “Substituted quinolinyl- and naphthalenylbenzamides or benzylamines and related compounds useful as analgesics” (American Home Products Corpooration, priority 1990, dated 1993).
# Key:
# [1] = biological target: T1, BK2 receptor sites in guinea pig ileum (Cavia porcellus, UniProt O70526); experiment: Bradykinin Receptor Binding Assay (3H-BK Binding, G. P. Ileum); design: species or system guinea pig (Hartley strain); settings: 80 pM 3H-BK
# T1 construct: The distal portion of the ileum is removed and placed in ice cold homogenization buffer; from tissue; host or cells: distal ileum of adult male Hartley guinea pigs (animals from Charles River), washed membrane homogenate
# T1 sequence (O70526 1-372): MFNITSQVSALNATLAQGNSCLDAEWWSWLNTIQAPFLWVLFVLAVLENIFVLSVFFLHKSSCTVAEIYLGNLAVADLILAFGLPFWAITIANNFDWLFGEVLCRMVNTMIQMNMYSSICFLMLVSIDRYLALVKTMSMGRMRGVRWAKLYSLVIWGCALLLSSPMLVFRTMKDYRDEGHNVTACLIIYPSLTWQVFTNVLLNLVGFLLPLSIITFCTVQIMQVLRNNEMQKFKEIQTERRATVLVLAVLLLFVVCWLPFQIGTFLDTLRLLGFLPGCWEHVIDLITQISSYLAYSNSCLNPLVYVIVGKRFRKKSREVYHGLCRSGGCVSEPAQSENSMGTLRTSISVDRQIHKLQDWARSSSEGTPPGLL
# Method: Protocol for Bradykinin Receptor Binding Assay
# The purpose of this assay is to identify compounds which compete specifically with tritiated bradykinin (^3 H--BK) for BK2 receptor sites in guinea pig ileum.
# The guinea pig (adult male Hartley strain, 350-500 g, Charles River) is euthanized by stunning followed by decapitation. The distal portion of the ileum is removed and placed in ice cold homogenization buffer (25 mM N-[tris(hydroxymethyl)methyl]-2-aminoethanesulfonic acid (TES), 1 mM 1,10-phenanthroline, adjusted to pH 6.8 with NH4 OH). The contents of the ileal lumen are rinsed out with cold homogenization buffer. The tissue is cut into small pieces and homogenized in 20 volumes of homogenization buffer.
# The homogenate is filtered through a surgical gauze sponge and centrifuged at 50,000×g for 20 minutes at 4° C. The supernatant fluid is discarded and the homogenization and centrifugation procedure is repeated. After discarding the supernatant fluid, the final pellet is resuspended in 40 volumes of assay buffer (25 mM TES, pH=6.8, 1 mM 1,10-phenanthroline, 1 mM (2RS, 3RS)-1,4-dimercapto-2,3-butanediol (Cleland's reagent), 2 μM captopril, 140 μg/mL bacitracin and 0.1% bovine serum albumin (BSA)). The homogenate is filtered once more through a surgical gauze sponge and kept on ice until use.
# The assay is performed using only polypropylene pipet tips and polypropylene test tubes. Each tube receives 100 μL of 800 pM ^3 H--BK, 100 μL of the test compound solution or vehicle (TES assay buffer), and 100 μL of 25 mg/mL tissue homogenate in a total volume of 1 mL. The final concentration of ^3 H--BK is 80 pM. The final tissue concentration is 2.5 mg/mL. Compounds are screened at 100 μM or 10 μM. Nonspecific binding is determined in the presence of 1 μM unlabeled bradykinin. All determinations are made in triplicate. Three 100 μL aliquots of the 800 pM ^3 H--BK working solution are added directly to scintillation vials to determine the total added radioactivity.
# The tubes are incubated for 90 minutes at 25° C. while being gently agitated on an orbital shaker. Bound ligand is separated from free ligand, using Whatman GF/B glass fiber filters (pretreated with 0.1% aqueous polyethyleneimine made neutral with HCl). Assay tubes and glass fiber filters are rinsed three times with 3 mL of cold physiological saline.
# The filter discs are transferred to 20 mL scintillation vials. Ten mL of aqueous sample LSC cocktail (Aquassure, New England Nuclear) is added to each vial. After capping, the vials are agitated for 5 minutes on an orbital shaker. The samples are counted for ten minutes in a refrigerated liquid scintillation counter.
# The following values are obtained:
# Bns : Nonspecific binding
# Bx : Total binding in the presence of the test compound
# C: Control specific binding C=Bt -Bns
# D: Specific binding in the presence of the test compound D=Bx -Bns
# Percent of Control: D/C×100
# Percent Inhibition: (1-D/C)×100
# After calculation of Percent of Control for each dilution, the values are analyzed and the IC50 with its 95% confidence limits is determined on a Hewlett Packard 9816 computer using the program "PS-NONLIN" (generalizednon-linear regression with inverse prediction and graphics).
# The test results are reported in the TABLE below under the heading 3H--BK Binding, G. P. Ileum.
# [2] = test system: bradykinin-induced hyperalgesia (pain threshold) in rats; experiment: Bradykinin-induced Hyperalgesia in Rats; type: in vivo, rats (female Sprague Dawley); settings: 100 mg/kg p.o.
# Method: Protocol for Bradykinin-induced Hyperalgesia in Rats
# The purpose of this assay is to evaluate analgesic activity of bradykinin antagonists in an inflammatory pain model in rats.
# Animals (female Sprague Dawley rats (Charles River, Kingston, NY) 80-115 gms) are fasted overnight, with water given ad lib, if the compounds are to be administered orally. Ten rats are used per test group and six per normal group.
# Test compounds are suspended in 0.5% Tween 80 in distilled water, and are administered orally 1 hour (or i.p. 5 minutes) prior to the injection of bradykinin.
# The animals are randomized prior to drug administration in order to make the study blind. Bradykinin is injected, as the phlogistic agent, into the subplantar region of the right hindpaw of the rats, in a 0.01 mg/0.1 mL saline solution. The pain threshold is measured 1 minute later using a modification of the Randall-Selitto method, [Randall, et al., Archives International Pharmacodynamics, VIII N4, p 409-419 (1957)].
# Animals are placed in a horizontal position with a hindpaw hanging down on the apparatus. The teflon point is placed on the foot pad and a steady pressure is applied, using a foot pedal. The endpoint is determined when the rat emits a squeak or forcefully attempts to remove its paw from the apparatus. […]
# Drug effects are expressed as a percent change in pain threshold from bradykinin control values. […]
# [3] = test system: writhing response induced by bradykinin in mice; experiment: Bradykinin-induced Writhing in Mice; type: in vivo, mice (male CD-1)
# Method: Protocol for Bradykinin-induced Writhing in Mice
# The purpose of this assay is to determine the ability of test drugs to inhibit the writhing response induced by bradykinin in mice. This test is a primary in vivo screen for bradykinin antagonist analgesics.
# Groups of 10 mice each (male CD-1 mice (14-19 g) from Charles River, Kingston, NY, fasted overnight prior to experiment, but having free access to water) are used. Each mouse receives an intraperitoneal injection of 1 mg/kg PGE2 (0.1 mL/10 g body weight) followed 20 minutes later by an i.p. injection of bradykinin 0.5 mg/kg. The number of writhes per mouse is determined for 2 minutes after bradykinin injection. For a primary screen, drugs are administered orally at 20 mg/kg 1 hour prior to the bradykinin.
# The percent inhibition of writhing obtained is calculated as follows: [formula]
# Several logarithmically spaced doses are tested and the ED50 (dose which inhibits the writhing response by 50%) is determined by regression methods with inverse prediction.
# The test results are reported in the TABLE below under the heading BK Induced Writhing in Mice.
Structure (SMILES),inhibition at 10 µM [1] [%],further results
"O=C(NC1CCN(Cc2ccccc2)CC1)c1ccccc1OCc1ccc2ccccc2n1 [Example 8, N-[1-(Phenylmethyl)-4-piperidinyl]-2-(2-quinolinylmethoxy)benzamide]",8.4,–
"O=C(NC1CCN(Cc2ccccc2)CC1)c1ccc(OCc2cccc3ccccc23)cc1 [Example 10, N-[1-(Phenylmethyl)-4-piperidinyl]-4-(1-naphthalenylmethoxy)benzamide]",8.6,–
"O=C(NC1CCN(Cc2ccccc2)CC1)c1ccc(OCc2cc[n+]([O-])c3ccccc23)cc1 [Example 14, N-[1-(Phenylmethyl)-4-piperidinyl]-4-(4-quinolinylmethoxy)benzamide N-Oxide]",30.2,–
"O=C(NC1CCN(Cc2ccccc2)CC1)c1ccc(OCc2ccnc3ccccc23)cc1 [Example 1, N-[1-(Phenylmethyl)-4-piperidinyl]-4-(4-quinolinylmethoxy)benzamide]",–,"increase of BK induced pain threshold in rats [2]: 44.8%; IC50 [1]: 9.1 µM; inhibition at 100 µM [1]: 98.8%; BK Induced Writhing in Mice, % inhibition ([3]; 30 mg/kg i.p.): 40.0%; BK Induced Writhing in Mice, % inhibition ([3]; 300 mg/kg p.o.): 52.0%"
"O=C(NC1CCN(Cc2ccccc2)CC1)c1cccc(OCc2ccc3ccccc3n2)c1 [Example 7, N-[1-(Phenylmethyl)-4-piperidinyl]-3-(2-quinolinylmethoxy)benzamide]",43.2,–
"CCCC(=O)N(Cc1ccc(OCc2ccnc3ccccc23)cc1)C1CCN(Cc2ccccc2)CC1 [Example 17, N-[1-(Phenylmethyl)-4-piperidinyl]-N-[[4-(4-quinolinylmethoxy)phenyl]methyl]butanamide]",25.3,–
"O=C(NC1CCN(Cc2ccccc2)CC1)c1ccc(/C=C/c2ccnc3ccccc23)cc1 [Example 12, (E)-N-[1-(Phenylmethyl)-4-piperidinyl]-4-[2-(4-quinolinyl)ethenyl]benzamide]",78.7,"BK Induced Writhing in Mice, % inhibition ([3]; 30 mg/kg i.p.): 10.0%"
"O=C(NC1CCN(Cc2ccccc2)CC1)c1ccc(OCc2ccc3ccccc3n2)cc1 [Example 2, N-[1-(Phenylmethyl)-4-piperidinyl]-4-(2-quinolinylmethoxy)benzamide]",–,"IC50 [1]: 33.6 µM; inhibition at 100 µM [1]: 93.8%; BK Induced Writhing in Mice, % inhibition ([3]; 30 mg/kg i.p.): 40.0%; BK Induced Writhing in Mice, % inhibition ([3]; 100 mg/kg p.o.): 32.0%; BK Induced Writhing in Mice, % inhibition ([3]; 200 mg/kg p.o.): 22.5%"
"O=C(NC1CCN(Cc2ccccc2)CC1)c1ccccc1OCc1ccnc2ccccc12 [Example 6, N-[1-(Phenylmethyl)-4-piperidinyl]-2-(4-quinolinylmethoxy)benzamide]",17.3,–
"c1ccc(CN2CCC(NCc3ccc(OCc4ccnc5ccccc45)cc3)CC2)cc1 [Example 16, 1-(Phenylmethyl)-N-[[4-(4-quinolinylmethoxy)phenyl]methyl]-4-piperidinamine]",27.4,–

# Now from value to compound, other results behind:
inhibition at 10 µM [1] [%],Structure (SMILES),further results
8.1,"O=C(NC1CCN(Cc2ccccc2)CC1)c1ccc(NCc2ccnc3ccccc23)cc1 [Example 18, N-[1-(Phenylmethyl)-4-piperidinyl]-4-[(4-quinolinylmethyl)amino]benzamide]",–
32.8,"CCCCN1CCC(NC(=O)c2ccc(NCc3ccnc4ccccc34)cc2)CC1 [Example 19, N-(1-Butyl-4-piperidinyl)-4-[(4-quinolinylmethyl)amino]benzamide]",–
10.4,"CCCCN1CCC(NC(=O)c2ccc(OCc3ccc4ccccc4n3)cc2)CC1 [Example 4, N-(1-Butyl-4-piperidinyl)-4-(2-quinolinylmethoxy)benzamide]",–
15.2,"CCCCN1CCC(NC(=O)c2ccc(OCc3ccnc4ccccc34)cc2)CC1 [Example 3, N-(1-Butyl-4-piperidinyl)-4-(4-quinolinylmethoxy)benzamide]",–
11.1,"CCCCN1CCC(NC(=O)c2ccc(OCc3cccc4ccccc34)cc2)CC1 [Example 11, N-(1-Butyl-4-piperidinyl)-4-(1-naphthalenylmethoxy)benzamide]",–
63.8,"O=C(NC1CCN(Cc2ccccc2)CC1)c1cccc(OCc2ccnc3ccccc23)c1 [Example 5, N-[1-(Phenylmethyl)-4-piperidinyl]-3-(4-quinolinylmethoxy)benzamide]","IC50 [1]: 7.3 µM; BK Induced Writhing in Mice, % inhibition ([3]; 30 mg/kg i.p.): 31.0%; BK Induced Writhing in Mice, % inhibition ([3]; 200 mg/kg p.o.): 22.0%"
35.8,"O=C(NC1CCN(Cc2ccccc2)CC1)c1ccc(/C=C\c2ccnc3ccccc23)cc1 [Example 13, (Z)-N-[1-(Phenylmethyl)-4-piperidinyl]-4-[2-(4-quinolinyl)ethenyl]benzamide]",–
21.4,"CCCCN1CCC(NC(=O)c2cccc(OCc3ccnc4ccccc34)c2)CC1 [Example 9, N-(1-Butyl-4-piperidinyl)-3-(4-quinolinylmethoxy)benzamide]",–
30.2,"CCN(CC)C(=O)c1ccc(CN2CCC(NC(=O)c3ccc(OCc4ccnc5ccccc45)cc3)CC2)cc1 [Example 15, N-[1-[[4-[(Diethylamino)carbonyl]phenyl]methyl]-4-piperidinyl]-4-(4-quinolinylmethoxy)benzamide]",–
